Like-named read-outs stand apart in the source and are kept apart here.
Experiments:
[1] = system: MDR1; conditions: MDR1-overexpressing MDCKII cells and Caco-2 cells; cited from earlier work
[2] = target: T1, OAT3 (Homo sapiens, UniProt Q8TCC7); assay: Uptake inhibition assay, OAT3-overexpressing HEK293 cells; format: cell-based; conditions: oxindole alkaloids, substrate E3S, read-out: IC50 (95% CI of IC50)
T1 construct: expressed in transfected cells; host or cells: HEK293 (lentiviral transduction; cDNA synthesised by GenScript)
Description: The human embryonic kidney 293 (HEK293) cell line was purchased from Invitrogen/ThermoFisher (Waltham, MA, USA). Madin–Darby canine kidney II (MDCKII) wild type cells were obtained from the European Collection of Authenticated Cell Cultures (ECACC catalog no. 00062107). […]
Plated cells were preincubated with a transport buffer (HBSS) containing 30 or 150 µg/mL of UT extract or 100 µM of isopteropodine, mitraphylline, or uncarine D for 15 min at an appropriate temperature. […] For radiolabeled substrates, accumulation was measured by liquid scintillation counting (MicroBeta Scintillation Counter, PerkinElmer).
The transporter-mediated uptake and ATP-dependent transport were determined by subtracting the activity of the control cell/transporter abundant-membrane in the presence of AMP from the activity of the transporter-overexpressing cell/transporter-abundant membrane in the presence of ATP. The relative transporter-specific accumulation was expressed as the percent of DMSO activity. […] Confidence intervals (CIs) of 95% were also determined. […]

T1 sequence (Q8TCC7 whole entry): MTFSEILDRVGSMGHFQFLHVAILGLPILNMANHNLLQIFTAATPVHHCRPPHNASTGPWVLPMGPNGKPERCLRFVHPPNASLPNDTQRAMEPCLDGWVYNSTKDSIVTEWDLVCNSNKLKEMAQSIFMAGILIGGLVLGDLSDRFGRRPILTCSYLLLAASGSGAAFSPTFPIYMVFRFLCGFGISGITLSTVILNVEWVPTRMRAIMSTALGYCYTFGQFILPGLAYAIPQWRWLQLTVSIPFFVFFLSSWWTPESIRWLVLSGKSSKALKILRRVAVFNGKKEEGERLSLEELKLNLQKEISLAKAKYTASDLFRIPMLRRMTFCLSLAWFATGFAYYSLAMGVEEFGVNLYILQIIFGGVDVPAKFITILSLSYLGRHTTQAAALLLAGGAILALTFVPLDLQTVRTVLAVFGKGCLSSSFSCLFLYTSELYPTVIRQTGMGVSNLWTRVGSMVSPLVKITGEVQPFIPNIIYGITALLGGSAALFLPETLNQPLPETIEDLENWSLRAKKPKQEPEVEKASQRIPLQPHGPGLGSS

| SMILES | MDR1 substrate status [1] | IC50 ([2]; listed as Isopteropodine) [µM] | IC50 [2] [µM] |
| --- | --- | --- | --- |
| COC(=O)C1=CO[C@@H](C)[C@H]2CN3CC[C@]4(C(=O)Nc5ccccc54)[C@@H]3C[C@H]12 [mitraphylline] | MDR1 substrate |  |  |
| COC(=O)C1=CO[C@@H](C)[C@@H]2CN3CC[C@@]4(C(=O)Nc5ccccc54)[C@@H]3C[C@H]12 [isopteropodine] |  | 46.5 | 46.5 |

— article PMC11597817, “Modulation of Multispecific Transporters by Uncaria tomentosa Extract and Its Major Phytoconstituents” (Pharmaceutics, 2024)
